These results are taken from PMC9067930 (Science Advances, 2022).

Where two headings read alike, the source gives them in different places. No end group written: not given here.

Assay [1] addresses T1, Y2R (Homo sapiens, UniProt P49146).
T1 sequence (P49146 1-381): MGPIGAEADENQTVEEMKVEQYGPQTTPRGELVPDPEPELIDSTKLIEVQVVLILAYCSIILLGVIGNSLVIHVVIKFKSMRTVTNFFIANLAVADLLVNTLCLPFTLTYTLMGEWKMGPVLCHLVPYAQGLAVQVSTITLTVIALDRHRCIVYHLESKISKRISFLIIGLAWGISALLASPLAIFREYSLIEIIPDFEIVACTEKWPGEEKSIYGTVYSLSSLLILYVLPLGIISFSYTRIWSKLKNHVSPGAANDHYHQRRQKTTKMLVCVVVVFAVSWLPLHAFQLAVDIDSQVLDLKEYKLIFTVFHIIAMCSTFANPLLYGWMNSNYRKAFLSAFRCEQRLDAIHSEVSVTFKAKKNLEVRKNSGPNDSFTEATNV
Type of assay: binding. The following applies: high- and low-affinity state.

Assay [2] addresses Nluc-Y1R, wild type (human) (UniProt P25929). In words: FRET or BRET. For orientation: In BRET a luciferase serves as donor, and the signal depends on an acceptor being close.
Assay [3] concerns the target Nluc-Y4R, wild type (human) (UniProt P50391). In words: FRET or BRET.
The next assay deals with Nluc-Y4R Q^5.46A (human) (UniProt P50391). Description: FRET or BRET.
Nluc-Y4R Q^5.46A (human), sequence (P50391 whole entry): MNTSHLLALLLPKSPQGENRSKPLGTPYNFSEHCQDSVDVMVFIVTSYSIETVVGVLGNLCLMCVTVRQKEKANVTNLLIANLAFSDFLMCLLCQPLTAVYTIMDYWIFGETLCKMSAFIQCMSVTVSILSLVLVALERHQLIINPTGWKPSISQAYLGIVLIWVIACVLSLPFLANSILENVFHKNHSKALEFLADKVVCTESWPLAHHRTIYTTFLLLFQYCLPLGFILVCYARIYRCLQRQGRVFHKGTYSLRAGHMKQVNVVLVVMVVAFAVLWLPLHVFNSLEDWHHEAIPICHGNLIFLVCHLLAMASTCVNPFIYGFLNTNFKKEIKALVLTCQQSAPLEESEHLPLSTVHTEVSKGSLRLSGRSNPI
Assay [4] addresses Nluc-Y4R, wild type (human) (UniProt P50391). Description: FRET or BRET. The source holds these as a separate data set.
Assay [5] relates to Y2R. As to conditions: cited from earlier work.
The next assay concerns Y1R. The following applies: cited from earlier work.
The test system of assay [6] is Y4R. The following applies: cited from earlier work.
Assay [7] deals with Y4R. The following applies: cited from earlier work. This is another data set of the same source.

Nluc-Y4R, wild type (human), sequence (P50391 whole entry): as above
Nluc-Y1R, wild type (human), sequence (P25929 whole entry): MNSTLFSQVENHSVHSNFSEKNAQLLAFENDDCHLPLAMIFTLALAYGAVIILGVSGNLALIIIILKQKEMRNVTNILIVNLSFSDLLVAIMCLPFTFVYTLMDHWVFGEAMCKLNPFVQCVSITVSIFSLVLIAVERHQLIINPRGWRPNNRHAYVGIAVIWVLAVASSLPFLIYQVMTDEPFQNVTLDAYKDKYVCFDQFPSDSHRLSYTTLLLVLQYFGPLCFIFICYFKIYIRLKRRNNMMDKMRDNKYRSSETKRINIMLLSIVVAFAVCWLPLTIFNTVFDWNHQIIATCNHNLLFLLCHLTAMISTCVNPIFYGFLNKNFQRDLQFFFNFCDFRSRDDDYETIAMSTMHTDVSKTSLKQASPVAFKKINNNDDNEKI

On to `CCN(CC)C(=O)C(c1ccccc1)N1CCN(c2ccc(NC(=O)c3ccccc3-c3cccnc3)cc2F)CC1` (stereo not drawn) [JNJ-31020028], for which, on Y2R [1], the “affinity (Ki) in both states” value was “essentially the same affinity”. Turning to K18(TAMRA)-NPY (peptide), in assay [2], the KD,2 (low-affinity state) came to 126 nM. On to K22(TAMRA),Nle17,30-PP (peptide), for which the results for the KD,1 (high-affinity state) in [3] and in assay [4] were 18 nM and 26 nM, respectively. The compound further showed a fold reduction of affinity against wild-type Y4R with Nluc-Y4R Q^5.46A (human) of 100 fold.

For NPY mutant T32A, the binding affinity result in the assay with Y2R [5], in the assay with Y1R (Y1R) and with Y4R [6] was “loss of binding affinity” in each case. For NPY(2–36): truncated NPY analog, in the assay with Y1R (Y1R), the “reduction of affinity and activity, respectively” value was “more than 50 fold”.

For the compound “NPY(3–36): N-terminally truncated NPY analog”, the affinity entry in the assay on Y2R [5] was “subnanomolar affinity”. Moreover, in the assay on Y1R (Y1R), the “reduction of affinity and activity, respectively” value is reported as “more than 50 fold”.

“NPY(13–36): N-terminally truncated NPY analog”: the affinity result with Y2R [5] is listed as “subnanomolar affinity”. Turning to “NPY(18–36): N-terminally truncated NPY analog”, the affinity entry in the assay with Y2R [5] is “subnanomolar affinity”. In the case of “NPY(22–36): N-terminally truncated NPY analog”, the affinity entry with Y2R [5] is “subnanomolar affinity”. As for “PP(2–36): N-terminally truncated PP (PLEPVYPGDNATPEQMAQYAADLRRYINMLTRPRY; ends and bridges not checked; UniProt P01298 31-65, looked up, fragment)”, in the assay on Y4R [7], the functional impairment entry is recorded as “limited functional impairment”.

On to “PYY: 36-residue C-terminally amidated neuropeptide”, for which, in the assay with Y1R (Y1R F286A), the binding result is “marked loss”. Regarding Q34G variant of NPY, the “loss of binding affinity compared to NPY” value in the assay on Y1R (Y1R) is 15 fold. For the compound Q34P-substituted analog of NPY, the binding result in the assay with Y2R [5] is on record as “not tolerated”; with Y4R [6] it was “improved binding”. The affinity entry in the assay on Y1R (Y1R) is listed as “wild-type affinity”. Besides, in the assay with Y1R (Y1R, exchange of Q34 by proline), the binding affinity result is “unchanged binding affinity”.
